Assay results reported in patent US10323254B2, “Method for regulating plant growth” (RIKEN, priority 2015, dated 2019).

Tested on: BSS1-GFP
Assay: Fluorescence microscopy of punctate BSS1-GFP in transgenic seedlings
Type: in vivo, Arabidopsis thaliana
Conditions: root cells of BSS1-GFP plants treated with 50 μM BFA for 1 hour
Method: FIGS. 5C to 5E show analysis of BSS1-GFP puncta signal intensities upon treatment with Brz and BL. Seven-day-old BSS1-GFP transgenic seedlings were treated for 3 hours with 3 μM Brz (Brz), an equal volume of DMSO (Mock), or 100 μM BL (BL). […] The results are represented as the mean±s.d. The signal intensity was measured using ImageJ software. […]
The plants that were transformed with the CaMV35S-BSS1-GFP construct BSS1(-GFP)-OX and the CaMV35S-BIL1-GFP construct BIL1-GFP-OX were observed via confocal laser scanning microscopy with a BX60 fluorescence microscope (Olympus) equipped with a Model CSU10 confocal scanner (Yokogawa Electric) and LSM700 (Zeiss).
FM4-64 (Molecular Probes) dissolved in water was applied to Arabidopsis plants at a final concentration of 4 μM for 3 minutes. The plants were washed with water to remove the excessive amount of the stain and observed. A DMSO-base stock solution of Brefeldin A (BFA) (Sigma) was applied to the cells at a final concentration of 50 μM for 1 hour.
The images were analyzed using ImageJ software. To measure the ratio of the nuclear and cytosolic signals of BIL1-GFP for each cell, the signal intensities in the nucleus and cytosol were calculated from the mean of the intensity in each area. The nuclear to cytosolic signal ratio was then calculated for each cell. The average nuclear/cytosolic signal ratio and standard error were calculated from measurements of at least 54 cells from each line (FIG. 9B). Line scan measurements from the vacuole to the nucleus through the cytosol were performed, and representative plot profiles of sample measurements are presented in FIG. 5C.

C[C@H]1CCC/C=C/[C@@H]2C[C@H](O)C[C@H]2[C@H](O)/C=C/C(=O)O1 [BFA, Brefeldin A]
formation of punctate BSS1: not inhibited
